Measured values published in patent US8158672B2, “Fluoroalkoxy-substituted 1,3-dihydro-isoindolyl compounds and their pharmaceutical uses” (Celgene Corporation, priority 2002, dated 2012).

| SMILES | melting point [°C] |
| --- | --- |
| CCOc1cc(C(CC(N)=O)N2Cc3cccc(NC(=O)C4CC4)c3C2=O)ccc1OC(F)F (centres unmarked) [Example 24, Cyclopropanecarboxylic acid {2-[2-carbamoyl-1-(4-difluoromethoxy-3-ethoxy-phenyl)-ethyl]-3-oxo-2,3-dihydro-1H -isoindol-4-yl}-amide] | 179 to 181 |
| CCOc1cc(C(CC(N)=O)N2Cc3c(Cl)ccc(NC(=O)C4CC4)c3C2=O)ccc1OC(F)F (centres unmarked) [Example 37, Cyclopropanecarboxylic acid {2-[2-carbamoyl-1-(4-difluoromethoxy-3-ethoxy-phenyl)-ethyl]-7-chloro-3-oxo-2,3-dihydro-1H-isoindol-4-yl}-amide] | 198 to 200 |
| CCOc1cc(C(CC(=O)O)N2Cc3cccc(NC(C)=O)c3C2=O)ccc1OC(F)F (centres unmarked) [Example 22, 3-(7-Acetylamino-1-oxo-1,3-dihydro-isoindol-2-yl)-3-(4-difluoromethoxy-3-ethoxy-phenyl)-propionic acid] | 105 to 107 |
| O=C(CC(c1ccc(OC(F)F)c(OCC2CC2)c1)N1C(=O)c2ccccc2C1=O)NO (centres unmarked) [Example 8, 3-(3-Cyclopropylmethoxy-4-difluoromethoxy-phenyl) -3-(1,3-dioxo-1,3-dihydro-isoindol-2-yl)-N-hydroxy-propionamide] | 129 to 131 |
| CN(C)C(=O)CC(c1ccc(OC(F)F)c(OCC2CC2)c1)N1Cc2cccc(N)c2C1=O (centres unmarked) [Example 14, 3-(7-Amino-1-oxo-1,3-dihydro-isoindol-2-yl)-3-(3-cyclopropylmethoxy-4-difluoromethoxy-phenyl)-N,N-dimethyl-propionamide] | 70 to 72 |
| CCOc1cc(C(CS(C)(=O)=O)N2C(=O)c3cccc(NC(C)=O)c3C2=O)ccc1OC(F)F (centres unmarked) [Example 36] | 118 to 120 |
| CCOc1cc(C(CC(=O)NO)N2C(=O)c3cccc(NC(C)=O)c3C2=O)ccc1OC(F)F (centres unmarked) [Example 33, 3-(4-Acetylamino-1,3-dioxo-1,3-dihydro-isoindol-2-yl)-3-(4-difluoromethoxy-3-ethoxy-phenyl)-N-hydroxy-propionamide] | 148 to 150 |
| NC(=O)CC(c1ccc(OC(F)F)c(OC(F)F)c1)N1Cc2cccc(NC(=O)C3CC3)c2C1=O (centres unmarked) [Example 43, Cyclopropanecarboxylic acid {2-[1-(3,4-bis-difluoromethoxy-phenyl)-2-carbamoyl-ethyl]-3-oxo-2,3-dihydro-1H-isoindol-4-yl}-amide] | 198 to 200 |
| CC(=O)Nc1cccc2c1C(=O)N(C(CC(=O)N(C)C)c1ccc(OC(F)F)c(OCC3CC3)c1)C2=O (centres unmarked) [Example 5, 3-(4-Acetylamino-1,3-dioxo-1,3-dihydro-isoindol-2-yl)-3-(3-cyclopropylmethoxy-4-difluoromethoxy-phenyl)-N,N -dimethyl-propionamide] | 80 to 82 |
| CC(=O)Nc1cccc2c1C(=O)N(C(CC(N)=O)c1ccc(OC(F)F)c(OCC3CC3)c1)C2=O (centres unmarked) [Example 6, 3-(4-Acetylamino-1,3-dioxo-1,3-dihydro-isoindol-2-yl) -3-(3 cyclopropylmethoxy-4-difluoromethoxy-phenyl) -propionamide] | 77 to 79 |
| CCOc1cc(C(CC(=O)N2CCOCC2)N2Cc3cccc(NC(C)=O)c3C2=O)ccc1OC(F)F (centres unmarked) [Example 39, N-{2-[1-(4-Difluoromethoxy-3-ethoxy-phenyl)-3-morpholin-4-yl-3-oxo-propyl]-3-oxo-2,3-dihydro-1H-isoindol-4-yl}-acetamide] | 164 to 166 |
| O=C(O)CC(c1ccc(OC(F)F)c(OC(F)F)c1)N1Cc2cccc(NC(=O)C3CC3)c2C1=O (centres unmarked) [Example 45, 3-(3,4-Bis-difluoromethoxy-phenyl)-3-[7-(cyclopropanecarbonyl-amino)-1-oxo-1,3-dihydro-isoindol-2-yl]-propionic acid] | 94 to 96 |
| CCOc1cc(C(CC(=O)NO)N2Cc3cccc(NC(C)=O)c3C2=O)ccc1OC(F)F (centres unmarked) [Example 29, 3-(7-Acetylamino-1-oxo-1,3-dihydro-isoindol-2-yl)-3-(4-difluoromethoxy-3-ethoxy-phenyl)-N-hydroxy-propionamide] | 121 to 123 |
| O=C(CC(c1ccc(OC(F)F)c(OC(F)F)c1)N1Cc2cccc(NC(=O)C3CC3)c2C1=O)NO (centres unmarked) [Example 44, Cyclopropanecarboxylic acid {2-[1-(3,4-bis-difluoromethoxy-phenyl)-2-hydroxycarbamoyl-ethyl]-3-oxo-2,3-dihydro-1H-isoindol-4-yl}-amide] | 191 to 193 |
| CCOc1cc(C(CC(=O)N(C)C)N2Cc3cccc(NC(C)=O)c3C2=O)ccc1OC(F)F (centres unmarked) [Example 28, 3-(7-Acetylamino-1-oxo-1,3-dihydro-isoindol-2-yl)-3-(4-difluoromethoxy-3-ethoxy-phenyl)-N,N-dimethyl-propionamide] | 141 to 143 |
| CCOc1cc(C(CC(=O)N2CCOCC2)N2C(=O)c3cccc(NC(C)=O)c3C2=O)ccc1OC(F)F (centres unmarked) [Example 38, N-{2-[1-(4-Difluoromethoxy-3-ethoxy-phenyl)-3-morpholin-4-yl-3-oxo-propyl]-1,3-dioxo-2,3-dihydro-1H-isoindol-4-yl}-acetamide] | 109 to 111 |
| CCOc1cc(C(CC(N)=O)N2C(=O)c3cccc(NC(C)=O)c3C2=O)ccc1OC(F)F (centres unmarked) [Example 31, 3-(4-Acetylamino-1,3-dioxo-1,3-dihydro-isoindol-2-yl)-3-(4-difluoromethoxy-3-ethoxy-phenyl)-propionamide] | 178 to 180 |
| CCOc1cc(C(CC(N)=O)N2Cc3cccc(NC(C)=O)c3C2=O)ccc1OC(F)F (centres unmarked) [Example 27, 3-(7-Acetylamino-1-oxo-1,3-dihydro-isoindol-2-yl)-3-(4-difluoromethoxy-3-ethoxy-phenyl)-propionamide] | 129 to 131 |
| COC(=O)CC(c1ccc(OC(F)F)c(OC(F)F)c1)N1Cc2c(Cl)ccc(NC(=O)C3CC3)c2C1=O (centres unmarked) [Example 41, 3-(3,4-Bis-difluoromethoxy-phenyl)-3-[4-chloro-7-(cyclopropanecarbonyl-amino)-1-oxo-1,3-dihydro-isoindol-2-yl]-propionic acid methyl ester] | 175 to 177 |
| CCOc1cc(C(CC(=O)N(C)C)N2Cc3cccc(NC(=O)C4CC4)c3C2=O)ccc1OC(F)F (centres unmarked) [Example 25, Cyclopropanecarboxylic acid {2-[1-(4-difluoromethoxy-3-ethoxy-phenyl)-2-dimethylcarbamoyl-ethyl]-3-oxo-2,3-dihydro-1H-isoindol-4-yl}-amide] | 135 to 137 |
| CCOc1cc(C(CC(=O)NO)N2Cc3cccc(NC(=O)C4CC4)c3C2=O)ccc1OC(F)F (centres unmarked) [Example 26, Cyclopropanecarboxylic acid {2-[1-(4-difluoromethoxy-3-ethoxy-phenyl)-2-hydroxycarbamoyl-ethyl]-3-oxo-2,3-dihydro-1H-isoindol-4-yl}-amide] | 116 to 118 |
| CC(=O)Nc1cccc2c1C(=O)N(C(CC(=O)N(C)C)c1ccc(OC(F)F)c(OC(F)F)c1)C2=O (centres unmarked) [Example 40, 3-(4-Acetylamino-1,3-dioxo-1,3-dihydro-isoindol-2-yl)-3-(3,4-bis-difluoromethoxy-phenyl)-N,N-dimethyl-propionamide] | 83 to 85 |
| CCOc1cc(C(CC(=O)O)N2C(=O)c3cccc(NC(C)=O)c3C2=O)ccc1OC(F)F (centres unmarked) [Example 30, 3-(4-Acetylamino-1,3-dioxo-1,3-dihydro-isoindol-2-yl)-3-(4-difluoromethoxy-3-ethoxy-phenyl)-propionic acid] | 89 to 91 |
| CCOc1cc(C(CS(C)(=O)=O)N2Cc3cccc(NC(=O)C4CC4)c3C2=O)ccc1OC(F)F (centres unmarked) [Example 35, Cyclopropanecarboxylic acid {2-[1-(4-difluoromethoxy-3-ethoxy-phenyl)-2-methanesulfonyl-ethyl]-3-oxo-2,3-dihydro-1H-isoindol-4-yl}-amide] | 115 to 117 |
| CCOc1cc(C(CC(=O)N(C)C)N2C(=O)c3cccc(NC(C)=O)c3C2=O)ccc1OC(F)F (centres unmarked) [Example 32, 3-(4-Acetylamino-1,3-dioxo-1,3-dihydro-isoindol-2-yl)-3-(4-difluoromethoxy-3-ethoxy-phenyl)-N,N-dimethyl-propionamide] | 163 to 165 |
| CN(C)C(=O)CC(c1ccc(OC(F)F)c(OC(F)F)c1)N1Cc2cccc(NC(=O)C3CC3)c2C1=O (centres unmarked) [Example 42, Cyclopropanecarboxylic acid {2-[1-(3,4-bis-difluoromethoxy-phenyl)-2-dimethylcarbamoyl-ethyl]-3-oxo-2,3-dihydro-1H-isoindol-4-yl}-amide] | 158 to 160 |
